From PubChem BioAssay (NCI) come the findings set out here.

The structures appear in SMILES notation.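 Results reflect a 48-hour exposure of cells in 96-well plates to compound at five concentrations. TGI: total growth inhibition.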 Some results are limits rather than exact numbers.

Among the test systems are HOP-62 NSCLC; 786-0 renal; SW-620 colon; RXF 393 renal; M14 melanoma; SNB-19 CNS; UACC-62 melanoma; UO-31 renal; OVCAR-3 ovarian; MDA-MB-231 breast; KM12 colon; DU-145 prostate; NCI-H522 lung; HCT-116 colon; HT29 colon; MDA-N; NCI-H226 lung; TK-10 renal; LOX IMVI melanoma.
Holding throughout (assay): DTP human tumour cell line panel, 48 h

Consider `O=[N+]([O-])c1ccc(N/N=C(\c2ccccc2)c2ccccn2)nc1`, for which the TGI was 31.2 µM with HOP-62 NSCLC; 23.4 µM with 786-0 renal; greater than 77.1 µM in the test with SW-620 colon; 31.8 µM in the test on RXF 393 renal; 13.8 µM in the test on M14 melanoma; greater than 42.5 µM with SNB-19 CNS. The total growth inhibition concentration (TGI) is greater than 54.3 µM in the test on UACC-62 melanoma; 4.69 µM with UO-31 renal; 23.3 µM in the test with OVCAR-3 ovarian; 61.7 µM in the test on MDA-MB-231 breast; greater than 45.8 µM in the test on KM12 colon; 36.8 µM in the test with DU-145 prostate. In addition, the TGI in the test with NCI-H522 lung is 12.7 µM; in the test with HCT-116 colon, 29.8 µM; in the test with HT29 colon it was greater than 100 µM; in the test with MDA-N, greater than 100 µM.
With `NC(=O)CCC(CCC(N)=O)(CCC(N)=O)[N+](=O)[O-]`, the TGI with 786-0 renal, in the test on SW-620 colon, in the test with RXF 393 renal, in the test on M14 melanoma, with SNB-19 CNS and with UACC-62 melanoma was greater than 100 µM throughout. Further, the TGI in the test on UO-31 renal, in the test with MDA-MB-231 breast, in the test with KM12 colon, with NCI-H226 lung, in the test on DU-145 prostate and with NCI-H522 lung was greater than 100 µM each time. Besides, the total growth inhibition concentration (TGI) in the test on HCT-116 colon, in the test on HT29 colon, in the test on MDA-N and in the test with TK-10 renal was greater than 100 µM each time.
In the case of `C[C@]12CC[C@H]3[C@@H](CCC4=CC(=O)CC[C@@]43C)[C@@H]1CC[C@@H]2C(=O)Nc1ccc([N+](=O)[O-])c(C(F)(F)F)c1`, the TGI came to 67.1 µM with HOP-62 NSCLC; 30.5 µM in the test on LOX IMVI melanoma; 31.2 µM in the test with 786-0 renal; 37.6 µM with SW-620 colon; 36.8 µM with SNB-19 CNS; 31.9 µM in the test on UACC-62 melanoma. Also, the TGI was determined as 32.8 µM in the test on UO-31 renal; 60 µM with OVCAR-3 ovarian; 43.4 µM in the test with MDA-MB-231 breast; 36.4 µM in the test on KM12 colon; 39 µM in the test on NCI-H226 lung; 42.3 µM in the test on DU-145 prostate. Further, the TGI was 37.2 µM in the test on NCI-H522 lung; 32.2 µM in the test with HCT-116 colon; 32.1 µM in the test with HT29 colon; greater than 10 µM in the test on MDA-N; 35.3 µM with TK-10 renal.
In the case of `CC1C2(C)OC(=N)C(C#N)(C(C)O2)C1(C#N)C#N` (stereo not drawn), the TGI came out at 41.4 µM in the test on LOX IMVI melanoma; 62 µM in the test with 786-0 renal; 43 µM in the test on SW-620 colon; 35.7 µM in the test with RXF 393 renal; 35.8 µM in the test on M14 melanoma; 43.8 µM in the test with UACC-62 melanoma. The TGI in the test on UO-31 renal is greater than 100 µM; in the test on OVCAR-3 ovarian, 51.5 µM; in the test with MDA-MB-231 breast it was 41.6 µM; in the test with KM12 colon it was greater than 100 µM; in the test with NCI-H226 lung, greater than 100 µM; in the test on DU-145 prostate, 87 µM. In addition, the total growth inhibition concentration (TGI) is 65 µM in the test on HCT-116 colon, greater than 100 µM in the test on HT29 colon, 36.1 µM in the test with MDA-N and greater than 100 µM in the test with TK-10 renal.
In the case of `Clc1ccc(C2=C(c3ccccc3)C(c3ccc(Cl)cc3)N3C(=N[C@H]4CCCC[C@@H]43)N2)cc1` (stereo partly drawn), the TGI was determined as 25.4 µM in the test with LOX IMVI melanoma; 27.8 µM in the test on 786-0 renal; 20.6 µM in the test with SW-620 colon; 27.6 µM in the test with RXF 393 renal; 24.8 µM in the test on M14 melanoma; 27.6 µM in the test on SNB-19 CNS. In addition, the total growth inhibition concentration (TGI) in the test with UACC-62 melanoma is 31.4 µM; with UO-31 renal, 26.4 µM; in the test on OVCAR-3 ovarian it was 26.7 µM; in the test with MDA-MB-231 breast it was 29.8 µM; in the test with KM12 colon, 23.5 µM; in the test with NCI-H226 lung, 47.9 µM. The concentration for total growth inhibition (TGI) with DU-145 prostate is 25.9 µM; with HCT-116 colon, 14.7 µM; in the test with HT29 colon, 11.7 µM; with MDA-N, 28 µM; with TK-10 renal, 22.3 µM.
On to `CCC(CCN)(CCN)[N+](=O)[O-]`, for which the TGI with 786-0 renal, in the test with SW-620 colon, with RXF 393 renal, in the test with M14 melanoma, in the test with UACC-62 melanoma and in the test with MDA-MB-231 breast was greater than 100 µM each time. The TGI in the test on KM12 colon, in the test on DU-145 prostate, in the test on NCI-H522 lung, in the test on HCT-116 colon, in the test with HT29 colon and in the test with MDA-N was greater than 100 µM each time.
With `O=P(c1ccccc1)(c1ccccc1)c1ccc2c(c1)OCCOCCOCCOCCO2`, the concentration for total growth inhibition (TGI) in the test on HOP-62 NSCLC, with LOX IMVI melanoma, in the test on 786-0 renal, in the test with SW-620 colon, in the test with M14 melanoma and in the test with SNB-19 CNS was greater than 100 µM in each case. The TGI in the test on UACC-62 melanoma, in the test on UO-31 renal, with MDA-MB-231 breast, in the test on KM12 colon, with NCI-H226 lung and in the test on DU-145 prostate was greater than 100 µM each time. The concentration for total growth inhibition (TGI) in the test with NCI-H522 lung, in the test with HCT-116 colon, in the test with MDA-N and in the test with TK-10 renal was greater than 100 µM in each case.
On to `Cc1c(NC(=O)c2cc([N+](=O)[O-])cc([N+](=O)[O-])c2)c(=O)n(-c2ccccc2)n1C`, for which the TGI in the test with HOP-62 NSCLC, with LOX IMVI melanoma, in the test with 786-0 renal, with SW-620 colon, in the test with RXF 393 renal and in the test on M14 melanoma was greater than 100 µM in each case. The total growth inhibition concentration (TGI) with SNB-19 CNS, in the test with UACC-62 melanoma, in the test with UO-31 renal, in the test on OVCAR-3 ovarian, in the test with MDA-MB-231 breast and in the test with KM12 colon was greater than 100 µM throughout. For the same compound, the TGI with NCI-H226 lung, with DU-145 prostate, in the test with HCT-116 colon, with HT29 colon, in the test with MDA-N and in the test with TK-10 renal was greater than 100 µM in each case.
